Measured values from US8686146B2, “Azaindenoisoquinoline topoisomerase I inhibitors” (Purdue Research Foundation, priority 2012, dated 2014).
Structures can show the parent of a compound that is named as a salt.

Columns and labels:
human recombinant Top1 = target: T1, human recombinant Top1 (Homo sapiens, UniProt P11387); test: Top1-mediated DNA cleavage assay; type: biochemical; settings: semiquantitative, relative to compounds 1 and 2
T1 construct: made in house
T1 sequence (P11387 1-765): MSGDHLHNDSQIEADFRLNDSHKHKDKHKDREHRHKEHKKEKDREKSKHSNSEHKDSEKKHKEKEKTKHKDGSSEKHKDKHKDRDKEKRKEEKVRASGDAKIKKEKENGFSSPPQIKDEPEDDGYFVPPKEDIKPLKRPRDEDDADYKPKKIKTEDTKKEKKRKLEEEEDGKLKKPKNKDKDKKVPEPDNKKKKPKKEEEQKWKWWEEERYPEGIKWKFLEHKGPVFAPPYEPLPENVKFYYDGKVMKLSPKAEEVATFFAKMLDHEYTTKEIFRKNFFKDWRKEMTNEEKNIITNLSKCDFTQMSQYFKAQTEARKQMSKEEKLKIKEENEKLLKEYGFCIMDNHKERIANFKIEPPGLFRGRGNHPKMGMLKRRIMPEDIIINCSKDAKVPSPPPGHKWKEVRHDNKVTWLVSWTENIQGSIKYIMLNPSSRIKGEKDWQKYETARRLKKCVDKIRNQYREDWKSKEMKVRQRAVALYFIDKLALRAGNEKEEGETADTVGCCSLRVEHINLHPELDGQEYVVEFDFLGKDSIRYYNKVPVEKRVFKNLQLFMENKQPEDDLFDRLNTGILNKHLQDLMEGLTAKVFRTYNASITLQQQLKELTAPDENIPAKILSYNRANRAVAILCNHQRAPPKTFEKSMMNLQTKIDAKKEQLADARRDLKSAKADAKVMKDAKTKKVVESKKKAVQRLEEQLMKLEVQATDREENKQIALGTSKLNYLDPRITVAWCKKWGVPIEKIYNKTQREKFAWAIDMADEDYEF
Description: Unincorporated [^32P]dGTP was removed using mini Quick […] columns (Roche, Indianapolis, Ind.), and the eluate containing the […] DNA substrate was collected. […] Aliquots of each reaction mixture were subjected to 20% denaturing PAGE. […] The DNA fragments were separated on a denaturing gel. […] All of the target compounds were tested for induction of DNA damage in Top1-mediated DNA cleavage assays, as described above.

[1] = system: approximately 60 different human cancer cell lines; test: NCI screen, mean graph midpoint over all cell lines; type: cell-based; settings: all human cancer cell lines successfully tested, 48 h
Description: (§1) Cells of approximately 60 different human cancer cell lines were incubated for 48 h with five 10-fold dilutions of the tested compounds starting from 100 μM and then treated with sulforhodamine B dye. The ratios of recorded optical densities relative to that of the control were plotted as a function of the common logarithm of the tested compound concentrations. […] The GI50 and the mean graph midpoint (MGM) values of the prepared indenoisoquinolines in selected cell lines are presented in Table I.
(§2) The antiproliferative activity of each compound was determined in the National Cancer Institute (NCI) screen as described above. Cells of approximately 60 different human cancer cell lines were incubated for 48 h with five 10-fold dilutions of the test compounds starting from 100 μM, and then treated with sulforhodamine B dye. The ratios of recorded optical densities relative to those of the control were plotted as a function of the common logarithm of the tested compound concentrations. […] The GI50 and the mean graph midpoint (MGM) values of the prepared (aza)indeno-isoquinolines in selected cell lines are presented in Table 2.

HOP-62 = test: NCI screen antiproliferative activity, lung HOP-62
Description: as §1, §2

HCT-116 = test: NCI screen antiproliferative activity, colon HCT-116
Description: as §1, §2

SF-539 = test: NCI screen antiproliferative activity, CNS SF-539
Description: as §1, §2

UACC-62 = test: NCI screen antiproliferative activity, melanoma UACC-62
Description: as §1, §2

OVCAR-3 = test: NCI screen antiproliferative activity, ovarian OVCAR-3
Description: as §1, §2

SN12C = test: NCI screen antiproliferative activity, renal SN12C
Description: as §1, §2

DU-145 = test: NCI screen antiproliferative activity, prostate DU-145
Description: as §1, §2

MCF7 = test: NCI screen antiproliferative activity, breast MCF7
Description: as §1, §2

| Top1 Cleavage (human recombinant Top1; Table 2) | melting point | Top1 Cleavage (human recombinant Top1; Table 1) | Compound | MGM (mean graph midpoint for growth inhibition) ([1]; Table 2) [µM] | GI50 (HOP-62) [nM] | GI50 (HCT-116) [nM] | GI50 (SF-539) [nM] | GI50 (UACC-62) [nM] | GI50 (OVCAR-3) [nM] | GI50 (SN12C) [nM] | GI50 (DU-145) [nM] | GI50 (MCF7) [nM] | MGM (mean graph midpoint for growth inhibition) ([1]; Table 1) [µM] |
| --- | --- | --- | --- | --- | --- | --- | --- | --- | --- | --- | --- | --- | --- |
| – | 278 to 281 °C (dec.) | – | COc1cc2c3c(n(CCCN(C)C)c(=O)c2cc1OC)-c1ncccc1C3=O (as salt: hydrochloride) [Compound 19, 7-Aza-5,6-dihydro-6-(3-dimethylaminopropyl)-2,3-dimethoxy-5,11-dioxo-11H-indeno[1,2-c]isoquinoline Hydrochloride] | – | – | – | – | – | – | – | – | – | – |
| +++ | – | – | COc1cnc2c(c1)C(=O)c1c-2n(CCCN(C)C)c(=O)c2ccccc12 [Compound 63, 7-Aza-5,6-dihydro-6-(3-dimethylaminopropyl)-9-methoxy-5,11-dioxo-11H-indeno[1,2-c]isoquinoline] | 0.40 | 300 | 340 | 570 | 540 | 940 | 260 | 300 | 210 | – |
| ++ | – | – | COc1cnc2c(c1)C(=O)c1c-2n(CCCN2CCOCC2)c(=O)c2cc(OC)c(OC)cc12.Cl [Compound 56, 7-Aza-5,6-dihydro-6-[3-(4-morpholino)propyl]-2,3,9-trimethoxy-5,11-dioxo-11H-indeno[1,2-c]isoquinoline Hydrochloride] | 0.48 | 240 | 330 | 270 | 220 | 310 | 340 | 340 | 100 | – |
| – | 268 to 270 °C | – | CN(C)CCCn1c2c(c3ccccc3c1=O)C(=O)c1cccnc1-2 (as salt: hydrochloride) [Compound 18, 7-Aza-5,6-dihydro-6-(3-dimethylaminopropyl)-5,11-dioxo-11H-indeno[1,2-c]-isoquinoline Hydrochloride] | – | – | – | – | – | – | – | – | – | – |
| – | – | + (+ weak activity;) | Cl.O=C1c2cccnc2-c2c1c1ccccc1c(=O)n2CCCNCCO [Compound 30, 7-Aza-5,6-dihydro-6-(3-(2-hydroxyethylamino)propyl)-5,11-dioxo-11H-indeno[1,2-c]isoquinoline Hydrochloride] | – | 1410 | 300 | 870 | 3090 | 1550 | 760 | 410 | 480 | 1.29 |
| ++ | – | – | COc1cnc2c(c1)C(=O)c1c-2n(CCCN2CCOCC2)c(=O)c2ccccc12 [Compound 64, 7-Aza-5,6-dihydro-6-(3-(4-morpholino)propyl)-9-methoxy-5,11-dioxo-11H-indeno[1,2-c]isoquinoline] | 3.0 | 4100 | 2500 | 3500 | 1700 | 6300 | 2600 | 3600 | 600 | – |
| +++ | – | – | COc1cnc2c(c1)C(=O)c1c-2n(CCCN(C)C)c(=O)c2cc([N+](=O)[O-])ccc12 [Compound 65, 7-Aza-5,6-dihydro-6-(3-dimethylaminopropyl)-9-methoxy-3-nitro-5,11-dioxo-11H-indeno[1,2-c]isoquinoline] | 0.11 | 54 | 74 | 78 | 52 | 140 | 57 | 51 | 24 | – |
| +++ | – | – | COc1cnc2c(c1)C(=O)c1c-2n(CCCN(C)C)c(=O)c2cc(OC)c(OC)cc12.Cl [Compound 55, 7-Aza-5,6-dihydro-6-(3-dimethylaminopropyl)-2,3,9-trimethoxy-5,11-dioxo-11H-indeno[1,2-c]isoquinoline Hydrochloride] | 1.8 | 920 | 1500 | 1100 | 3900 | 2900 | 3600 | 880 | 130 | – |

| Compound | Top1 Cleavage (human recombinant Top1; Table 2) | melting point | Top1 Cleavage (human recombinant Top1; Table 1) | MGM (mean graph midpoint for growth inhibition) ([1]; Table 2) [µM] | GI50 (HOP-62) [nM] | GI50 (HCT-116) [nM] | GI50 (SF-539) [nM] | GI50 (UACC-62) [nM] | GI50 (OVCAR-3) [nM] | GI50 (SN12C) [nM] | GI50 (DU-145) [nM] | GI50 (MCF7) [nM] | MGM (mean graph midpoint for growth inhibition) ([1]; Table 1) [µM] |
| --- | --- | --- | --- | --- | --- | --- | --- | --- | --- | --- | --- | --- | --- |
| COc1cc2c3c(n(CCCN(C)C)c(=O)c2cc1OC)-c1ccncc1C3=O.O=C(O)C(F)(F)F [Compound 127, 9-Aza-5,6-dihydro-6-(3-dimethylaminopropyl)-2,3-dimethoxy-5,11-dioxo-11H-indeno[1,2-]isoquinoline Trifluoroacetate] | + (+ weak activity;) | – | – | 6.5 | 6500 | 620 | 12000 | > 100000 | 7400 | 8500 | 2900 | 3900 | – |
